From doi:10.1101/743898v3 (biorxiv, 2019)
Where a chain is given by its changes, count along the chain named.

Legend:
[1] = molecular target: T1, ZmHK1 (tobacco membrane; fused to GFP) (Zea mays, UniProt Q9FRY7); assay: cytokinin binding assay, tobacco microsomal membranes
T1 sequence (Q9FRY7 1-974): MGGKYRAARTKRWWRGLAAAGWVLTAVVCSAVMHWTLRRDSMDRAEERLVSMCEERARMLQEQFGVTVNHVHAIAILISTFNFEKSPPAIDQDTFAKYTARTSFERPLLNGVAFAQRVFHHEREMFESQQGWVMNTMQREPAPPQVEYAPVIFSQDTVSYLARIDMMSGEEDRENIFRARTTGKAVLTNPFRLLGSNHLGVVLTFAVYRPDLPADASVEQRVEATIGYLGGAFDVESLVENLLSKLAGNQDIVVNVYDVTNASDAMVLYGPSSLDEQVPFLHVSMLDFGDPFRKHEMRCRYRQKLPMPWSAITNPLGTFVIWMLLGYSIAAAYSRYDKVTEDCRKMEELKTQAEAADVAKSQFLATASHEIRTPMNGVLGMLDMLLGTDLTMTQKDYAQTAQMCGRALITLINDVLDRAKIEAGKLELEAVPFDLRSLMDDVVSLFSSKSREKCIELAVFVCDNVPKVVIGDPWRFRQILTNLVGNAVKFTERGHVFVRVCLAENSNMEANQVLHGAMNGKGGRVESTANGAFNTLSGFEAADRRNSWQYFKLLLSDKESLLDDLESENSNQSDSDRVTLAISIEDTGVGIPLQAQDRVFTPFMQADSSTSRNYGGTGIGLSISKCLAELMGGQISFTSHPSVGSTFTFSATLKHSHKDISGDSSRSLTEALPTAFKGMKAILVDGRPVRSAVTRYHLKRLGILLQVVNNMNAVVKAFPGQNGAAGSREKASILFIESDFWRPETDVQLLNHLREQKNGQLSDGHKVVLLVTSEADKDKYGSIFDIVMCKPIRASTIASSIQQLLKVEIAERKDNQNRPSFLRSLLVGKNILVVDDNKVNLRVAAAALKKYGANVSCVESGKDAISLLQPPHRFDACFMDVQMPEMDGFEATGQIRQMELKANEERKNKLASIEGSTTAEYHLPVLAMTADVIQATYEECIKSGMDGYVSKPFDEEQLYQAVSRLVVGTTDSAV

[2] = molecular target: T2, ZmHK1 (tobacco membrane; fused to GFP) (Zea mays, UniProt Q9FRY7, P190L); assay: as above
T2 sequence (Q9FRY7 1-974 P190L): T1 sequence (Q9FRY7 1-974) with P190L

| Compound | Kd [1] [nM] | Kd [2] [nM] |
| --- | --- | --- |
| Nc1ncnc2nc[nH]c12 [Ade] | > 10000 |  |
| O=C(Nc1ccccc1)Nc1cnns1 [TD] | 49.2 |  |

Continued, values first:

| Kd [1] [nM] | Kd [2] [nM] | Compound |
| --- | --- | --- |
| 1.42 |  | c1ccc(CNc2ncnc3nc[nH]c23)cc1 [BA] |
|  | 0.23 | CC(C)=CCNc1ncnc2nc[nH]c12 [iP] |
| 114 |  | C[C@H](CO)CCNc1ncnc2nc[nH]c12 [DZ] |
